{"source": "patent US20180263943A1", "about": "“COMPOUND FOR TREATMENT OF MYOTONIC DYSTROPHY TYPE 1” (UNIVERSITAT DE VALÈNCIA, ESTUDI GENERAL, priority 2014, published 2018)", "key": {"[1]": {"tested_on": "DM1 fibroblasts", "assay": "LysoTracker staining of autolysosomes in DM1 fibroblasts", "format": "cell-based, human", "conditions": "0.01, 1, 10 and 100 μM, 48 h", "method": "A cell model of DM1 (provided by D. Furling's laboratory, Institute of Myologie, Paris) consisted of normal and DM1 (1300 CTG repeats) immortalized (hTERT) skin fibroblasts expressing conditional MyoD. Fibroblast cells were grown in Dulbecco's Modified Eagle Medium (DMEM) with 4.5 g/L of glucose, 1% of penicillin and streptomycin (P/S) and 10% foetal bovine serum (FBS) (Sigma). For compound testing, fibroblasts were aliquoted in 24-well plate at 3.5×10^4 cells per well. Each well contained a cover slip.\nTo this end, a cell model of DM1 was cultured as described above and NAC (Sigma-Aldrich) was added to afford final concentrations of 0.01, 1, 10 and 100 μM before incubating the cultures for 48 hours. To transdifferentiate fibroblasts into myoblasts by inducing expression of MyoD, cells were plated in muscle differentiation medium (MDM) containing DMEM 4.5 g/L glucose with 1% P/S, 2% horse serum, 1% apo-transferrin (10 mg/mL), 0.1% insulin (10 mg/mL) and 0.02% doxycyclin (10 mg/mL). After treatment with NAC, each well was washed twice with PBS and incubated with 100 nM LysoTracker RED-DND99 and 5 μg/mL Hoechst 33258 (Invitrogen and Sigma-Aldrich, respectively) at 37° C. for 30 min and mounted using fluorescence mounting medium (Dako, Glostrup, Denmark). Images from cell culture were obtained using a fluorescence microscope Leica DM4000 B LED at 400× magnification (FIG. 6)."}, "[2]": {"tested_on": "DM1 model flies (Mhc-Gal4 UASi(CTG)480>yw)", "assay": "Drosophila lifespan analyses with oral drug administration", "format": "in vivo", "conditions": "for increase in mean life compared to that for untreated flies: oral, 29° C.; for median survival compared to untreated flies / survival / mean life expectancy of myotonic dystrophy type 1 model flies (summary): oral administration; for survival / mean life expectancy of myotonic dystrophy type 1 model flies (summary): tested at 10 and 100 μM", "method": "Between 50-80 newly emerged flies were collected in freshly prepared tubes containing standard nutritive medium containing apoptosis or autophagic inhibitor drugs or solvent only (water or DMSO). Males and females were kept in different tubes at 29° C. Every day, the number of dead flies was scored. Flies were transferred to new tubes twice a week. NAC, chloroquine and NSCl (Sigma-Aldrich) were tested at 10 and 100 μM and dissolved in water or DMSO following the manufacturer's indications. Survival curves were obtained using the Kaplan-Meier method. Statistical curve comparisons were carried out according to the Gehan-Breslow-Wilcoxon test (α=0.05).\nThe effect of a chemical inhibition of apoptosis or autophagy in model flies (Mhc-Gal4 UASi(CTG)480>yw) was studied. Consequently, two different drugs previously described as autophagic inhibitors were tested. N-acetyl cysteine (NAC) blocks reactive oxygen species (ROS) and protects cells by inhibiting autophagy through activation of the PI3K/Akt/mTOR pathway (20), and chloroquine triggers autophagy inhibition raising lysosomal pH and, consequently, the fusion of autophagosome with lysosome, thus preventing lysosomal protein degradation [reviewed in (21)]. Both drugs were assayed at two different concentrations, 10 and 100 μM (FIGS. 5 A, B).\nAdditionally, the effects of apoptosis inhibition were assayed. NSCl, a caspase 3 inhibitor, was orally administered."}, "[3]": {"tested_on": "DM1 model flies [Mhc-Gal4 UAS-i(CTG)480>yw]", "assay": "Histological analysis of indirect flight muscle area in DM1 model flies", "format": "in vivo, Drosophila", "conditions": "oral administration", "method": "Analysis of the indirect flight muscle area in Drosophila thoraces was performed as previously described (13). Briefly, six Drosophila thoraces of three-day-old females were embedded in Epon following standard procedures. After the drying of the resin, semi-thin sections of 1.5 μm were obtained using Ultracut E ultramicrotome system (Reichert & Jung and Leica). Images were taken at 100× magnification with a Leica DM2500 microscope. To quantify muscle area, five images per fly containing IFMs (indirect flight muscles) were converted into binary images. Considering the complete image as 100% of the area, the percentage occupied by pixels corresponding to IFMs was calculated using NIH ImageJ software. P-values were obtained using a two-tailed, non-paired t-test (α=0.05), applying Welch's correction when necessary.\nFor that purpose, DM1 model flies were fed with food containing 10 and 100 μM NAC for 7 days.\nHistological analysis of muscles was performed in adult model flies [Mhc-Gal4 UAS-i(CTG)480>yw] and control flies (Mhc-Gal4>yw) which were fed for 7 days at 25° C. with standard media containing 10 and 100 μM NAC. After that period, six female thoraces were subjected to non-fluorescent histological analysis, as described above (FIG. 7)."}, "[4]": {"tested_on": "MBNL1", "assay": "MBNL1 nuclear protein levels in DM1 myoblasts (immunofluorescence)", "format": "cell-based, human", "conditions": "0.1, 1, 10 and 100 μM, 24 h", "method": "In order to determine whether NAC modifies MBNL1 protein levels and/or the number of ribonuclear foci, DM1 fibroblasts were transdifferentiated to myoblasts by induction of MyoD expression for 24 h. To this end, fibroblasts were aliquoted in 96-well plate (8×10^3 cells per well) and transdifferentiated to myoblast in DMD media over 24 hours before the addition of NAC was added at concentrations of 0.1, 1, 10 and 100 μM using DMSO and water as vehicle and remained in the media with the compound another 24 hours. Subsequently cells were fixed in 4% paraformaldehyde (PFA) for 10 min at room temperature followed by several washes in PBS 1×. Cells were then permeabilized with 0.3% Triton in PBS (PBT), blocked (PBT 1% donkey serum and 0.5% BSA) for 30 min at room temperature, and incubated with primary antibody (mouse anti-MBNL1 1:200; Sigma) at 4° C. overnight in order to detect MBNL1 with a monoclonal antibody. After several washes with PBT, cells were incubated for 45 min with biotin-conjugated secondary antibody (Sigma) at a 1:200 dilution. Cells were then incubated with ABC solution (ABC kit, VECTASTAIN) for 30 min at room temperature, followed by PBT washes and incubation with streptavidin-FITC (1:200) for 45 min. […] Images were taken using IN Cell Analyzer 2200 Imaging System and MBNL intensity in nuclei was counted using software designed for this system."}, "[5]": {"tested_on": "Myosin heavy chain (Mhc)-Gal4 UAS-i(CTG)480 flies", "assay": "Flight assay (landing height)", "format": "in vivo, Drosophila", "conditions": "five days", "method": "Flight assays were performed five days after according to (Babcock et al. 2014 PMID: 24561810) using 100 male flies per group. Landing distance was compared between groups taking the compound and controls using t-student test (FIG. 8). The significance threshold was set to p<0.05."}, "[6]": {"tested_on": "ribonuclear foci", "assay": "Ribonuclear foci detection in DM1 cells (in situ hybridization)", "format": "cell-based, human", "conditions": "0.1, 1, 10 and 100 μM, 24 h", "method": "In addition, for ribonuclear foci detection, fibroblasts were aliquoted in 96-well plate (1.0×10^4 cells per well). Compound was added 24 hours after plating the cells. After 24 hours incubation with NAC at concentrations of 0.1, 1, 10 and 100 μM using DMSO and water as vehicle, cells were fixed in 4% paraformaldehyde (PFA) for 10 min at room temperature followed by several washes in PBS 1×. Fixed cells were incubated in pre-hybridization buffer (SSC 2×, 30% deionized formamide) for 30 min at room temperature, hybridized with Cy3-(CAG)7-Cy3 labelled probe diluted 1:500 in hybridization buffer (40% formamide, 2×SSC, 0.2% BSA, 10% dextran sulfate, 2 mM vanadyl complex, 10% tRNA (10 mg/mL), 10% herring sperm) for 2 hours at 37° C., washed twice in SSC2× buffer for 15 min at 45° C., washed in PBS 1× for 15 min at room temperature, incubated with Hoechst 33342 (5 mg/mL) diluted 1:2000 in PBS 1× for 20 min at room temperature and mounted with 20% MOWIOL. Images were taken using IN Cell Analyzer 2200 Imaging System and foci number was counted using software designed for this system."}}, "note": "Entries after “also recorded” stand apart in the source; their conditions may differ."}
{"smiles": "CC(=O)N[C@@H](CS)C(=O)O", "note": "[NAC, N-acetyl cysteine]", "values": [{"measurement": "autolysosomes (LysoTracker staining) compared to untreated DM1 fibroblasts", "setting": "[1]", "result": "dramatic decrease of autolysosomes; also recorded: dramatically reduce autolysosomes"}, {"measurement": "increase in mean life compared to that for untreated flies", "setting": "[2]; 10 μM in food", "result": "at least twice"}, {"measurement": "median survival compared to untreated flies", "setting": "[2]; 10 μM", "result": "increased median survival"}, {"measurement": "increase in mean life compared to that for untreated flies", "setting": "[2]; 100 μM in food", "result": "at least twice"}, {"measurement": "median survival compared to untreated flies", "setting": "[2]; 100 μM", "result": "increased median survival"}, {"measurement": "survival / mean life expectancy of myotonic dystrophy type 1 model flies (summary)", "setting": "[2]", "result": "more than doubled"}, {"measurement": "muscle area of IFM versus water control", "setting": "[3]; 10 μM", "result": "increase in muscle area"}, {"measurement": "muscle area of IFM versus water control", "setting": "[3]; 100 μM", "result": "increase in muscle area"}, {"measurement": "MBNL1 intensity in the nucleus / MBNL1 protein levels", "setting": "[4]", "result": "remains unchanged"}, {"measurement": "landing height", "setting": "[5]; 10 μM in food", "result": "significantly higher landing height"}, {"measurement": "landing height", "setting": "[5]; 100 μM in food", "result": "significantly higher landing height"}, {"measurement": "number of ribonuclear foci", "setting": "[6]", "result": "does not modify; also recorded: neither modifies"}]}
{"smiles": "COc1ccc(CN2C(=O)C(=O)c3cc(S(=O)(=O)N4CCC[C@H]4COc4cccnc4)ccc32)cc1", "note": "[NSCl, 1-(4-methoxybenzyl)-5-({(2S)-2-[(3-pyridinyloxy)methyl]-1-pyrrolidinyl}sulfonyl)-1H-indole-2,3-dione]", "values": [{"measurement": "improvement of mean life", "setting": "[2]; 10 μM (lower concentration), orally administered", "result": 4, "unit": "days"}, {"measurement": "median survival compared to untreated flies", "setting": "[2]; 10 μM", "result": "improvement in median survival"}, {"measurement": "median survival compared to untreated flies", "setting": "[2]; 100 μM", "result": "No effect"}, {"measurement": "survival / mean life expectancy of myotonic dystrophy type 1 model flies (summary)", "setting": "[2]", "result": "improved"}]}
{"smiles": "CCN(CC)CCCC(C)Nc1ccnc2cc(Cl)ccc12", "note": "(stereo not shown) [chloroquine]", "values": [{"measurement": "increase in mean life compared to that for untreated flies", "setting": "[2]; 10 μM in food", "result": "at least twice"}, {"measurement": "median survival compared to untreated flies", "setting": "[2]; 10 μM", "result": "increased median survival"}, {"measurement": "increase in mean life compared to that for untreated flies", "setting": "[2]; 100 μM in food", "result": "at least twice"}, {"measurement": "median survival compared to untreated flies", "setting": "[2]; 100 μM", "result": "increased median survival"}, {"measurement": "survival / mean life expectancy of myotonic dystrophy type 1 model flies (summary)", "setting": "[2]", "result": "more than doubled"}, {"measurement": "muscle area of IFM versus water control", "setting": "[3]; 10 μM", "result": "increase in muscle area"}]}
